#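 48-hour exposure; five concentrations; linearly interpolated endpoints. Abbreviation: GI50, concentration required for 50% inhibition of growth. TGI marks complete inhibition of growth.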
# Key:
# Test in all cases: NCI anticancer screen, dose series, 48 h
# [1] = system: M14 melanoma
# [2] = system: NCI/ADR-RES ovarian
# [3] = system: HCC-2998 colon
# [4] = system: HS 578T breast
# [5] = system: IGROV1 ovarian
# [6] = system: SNB-75 CNS
# [7] = system: NCI-H522 lung
# [8] = system: RXF 393 renal
# [9] = system: RPMI-8226 leukemia
# [10] = system: SF-539 CNS
# [11] = system: HT29 colon
# [12] = system: TK-10 renal
# [13] = system: HCT-116 colon
# [14] = system: 786-0 renal
# [15] = system: OVCAR-3 ovarian
# [16] = system: SR leukemia
# [17] = system: UACC-257 melanoma
# [18] = system: MDA-MB-435
# [19] = system: BT-549 breast
# [20] = system: UO-31 renal
# [21] = system: SW-620 colon
# [22] = system: A498 renal
# [23] = system: SF-295 CNS
# [24] = system: HL-60(TB) leukemia
# [25] = system: HCT-15 colon
# [26] = system: CCRF-CEM leukemia
# [27] = system: PC-3 prostate
# [28] = system: K-562 leukemia
# [29] = system: MOLT-4 leukemia
# [30] = system: NCI-H226 lung
# [31] = system: OVCAR-5 ovarian
# [32] = system: SF-268 CNS
# [33] = system: U251 CNS
# [34] = system: MALME-3M melanoma
# [35] = system: SK-MEL-5 melanoma
# [36] = system: SNB-19 CNS
# [37] = system: OVCAR-8 ovarian
# [38] = system: HOP-62 NSCLC
# [39] = system: HOP-92 NSCLC
# [40] = system: SK-OV-3 ovarian
# [41] = system: MCF7 breast
# [42] = system: NCI-H23 lung
# [43] = system: KM12 colon
# [44] = system: COLO 205 colon
# [45] = system: SK-MEL-2 melanoma
# [46] = system: MDA-MB-231 breast
# [47] = system: A549 NSCLC
# [48] = system: LOX IMVI melanoma
# [49] = system: UACC-62 melanoma
# [50] = system: SK-MEL-28 melanoma
# [51] = system: T-47D breast
# [52] = system: DU-145 prostate
# [53] = system: OVCAR-4 ovarian
# [54] = system: NCI-H460 lung
# [55] = system: SN12C renal
# [56] = system: ACHN renal
smiles,measurement,setting,value
CC(C)CNC(=O)c1ccc(NC(=O)N(CC(C)C)C(=O)c2ccc(N)c(OCCCN)c2)c(OCCCN=C(N)N)c1,GI50,[1],> 62.5 µM
same,TGI,[1],> 62.5 µM
same,GI50,[2],> 62.5 µM
same,TGI,[2],> 62.5 µM
same,GI50,[3],> 62.5 µM
same,TGI,[3],> 62.5 µM
same,GI50,[4],> 62.5 µM
same,TGI,[4],> 62.5 µM
same,GI50,[5],> 62.5 µM
same,TGI,[5],> 62.5 µM
same,GI50,[6],> 62.5 µM
same,TGI,[6],> 62.5 µM
same,GI50,[7],> 62.5 µM
same,TGI,[7],> 62.5 µM
same,GI50,[8],> 62.5 µM
same,TGI,[8],> 62.5 µM
same,GI50,[9],> 62.5 µM
same,TGI,[9],> 62.5 µM
same,GI50,[10],> 62.5 µM
same,TGI,[10],> 62.5 µM
same,GI50,[11],> 62.5 µM
same,TGI,[11],> 62.5 µM
same,GI50,[12],> 62.5 µM
same,TGI,[12],> 62.5 µM
same,GI50,[13],> 62.5 µM
same,TGI,[13],> 62.5 µM
same,GI50,[14],> 62.5 µM
same,TGI,[14],> 62.5 µM
same,GI50,[15],> 62.5 µM
same,TGI,[15],> 62.5 µM
same,GI50,[16],> 62.5 µM
same,TGI,[16],> 62.5 µM
same,GI50,[17],> 62.5 µM
same,TGI,[17],> 62.5 µM
same,GI50,[18],> 62.5 µM
same,TGI,[18],> 62.5 µM
same,GI50,[19],> 62.5 µM
same,TGI,[19],> 62.5 µM
same,GI50,[20],> 62.5 µM
same,TGI,[20],> 62.5 µM
same,GI50,[21],> 62.5 µM
same,TGI,[21],> 62.5 µM
same,GI50,[22],> 62.5 µM
same,TGI,[22],> 62.5 µM
same,GI50,[23],> 62.5 µM
same,TGI,[23],> 62.5 µM
same,GI50,[24],> 62.5 µM
same,TGI,[24],> 62.5 µM
same,GI50,[25],> 62.5 µM
same,TGI,[25],> 62.5 µM
same,GI50,[26],> 62.5 µM
same,TGI,[26],> 62.5 µM
same,GI50,[27],> 62.5 µM
same,TGI,[27],> 62.5 µM
same,GI50,[28],> 62.5 µM
same,TGI,[28],> 62.5 µM
same,GI50,[29],> 62.5 µM
same,TGI,[29],> 62.5 µM
same,GI50,[30],> 62.5 µM
same,TGI,[30],> 62.5 µM
same,GI50,[31],> 62.5 µM
same,TGI,[31],> 62.5 µM
same,GI50,[32],> 62.5 µM
same,TGI,[32],> 62.5 µM
same,GI50,[33],> 62.5 µM
same,TGI,[33],> 62.5 µM
same,GI50,[34],> 62.5 µM
same,TGI,[34],> 62.5 µM
same,GI50,[35],> 62.5 µM
same,TGI,[35],> 62.5 µM
same,GI50,[36],> 62.5 µM
same,TGI,[36],> 62.5 µM
same,GI50,[37],> 62.5 µM
same,TGI,[37],> 62.5 µM
same,GI50,[38],> 62.5 µM
same,TGI,[38],> 62.5 µM
same,GI50,[39],> 62.5 µM
same,TGI,[39],> 62.5 µM
same,GI50,[40],> 62.5 µM
same,TGI,[40],> 62.5 µM
same,GI50,[41],> 62.5 µM
same,TGI,[41],> 62.5 µM
same,GI50,[42],> 62.5 µM
same,TGI,[42],> 62.5 µM
same,GI50,[43],> 62.5 µM
same,TGI,[43],> 62.5 µM
same,GI50,[44],> 62.5 µM
same,TGI,[44],> 62.5 µM
same,GI50,[45],> 62.5 µM
same,TGI,[45],> 62.5 µM
same,GI50,[46],> 62.5 µM
same,TGI,[46],> 62.5 µM
same,GI50,[47],> 62.5 µM
same,TGI,[47],> 62.5 µM
same,GI50,[48],> 62.5 µM
same,TGI,[48],> 62.5 µM
same,GI50,[49],> 62.5 µM
same,TGI,[49],> 62.5 µM
same,GI50,[50],> 62.5 µM
same,TGI,[50],> 62.5 µM
same,GI50,[51],> 62.5 µM
same,TGI,[51],> 62.5 µM
same,GI50,[52],> 62.5 µM
same,TGI,[52],> 62.5 µM
same,GI50,[53],> 62.5 µM
same,TGI,[53],> 62.5 µM
same,GI50,[54],> 62.5 µM
same,TGI,[54],> 62.5 µM
same,GI50,[55],> 62.5 µM
same,TGI,[55],> 62.5 µM
same,GI50,[56],> 62.5 µM
same,TGI,[56],> 62.5 µM

# Reference: PubChem BioAssay (NCI)
